This note sets out measurements from PubChem BioAssay AID790 (SRMLSC, 2007).

Assay [1] can be described thus: vps1Δ single mutant yeast growth suppression – S. cerevisiae, background strain comparison, dose response (AID 790). Conditions: S. cerevisiae vps1Δ mutant growth inhibition; measured here: background strain growth inhibition.
Assay [2] deals with S. cerevisiae vps1Δ mutant growth inhibition. The assay is described as above.

The source made the active and inactive calls. No rule for the calls is given here. Where only a bound is given, the exact number is not on record here.

As to `COc1ccc(-c2nnc(CSc3nc4ccccc4c(=O)n3C)o2)cc1OC`, the IC50 was above 10 µM in assay [1] and > 10 µM (inactive) in assay [2].
Regarding `CCn1c(-c2c[nH]c3ccccc23)n[nH]c1=S`, the IC50 in assay [1] was above 10 µM; in assay [2], > 10 µM (inactive).
Consider `Cc1ccc(C2N(c3ccc(Cl)c(Cl)c3)C(=O)C3CCCN32)o1` (stereo unspecified), for which the IC50 is above 10 µM in assay [1] and > 10 µM (inactive) in assay [2].
In the same order, the values of `O=C(COc1ccc(Cl)cc1Cl)N1CCN(C/C=C/c2ccccc2)CC1` are 7.14 µM and 13.2 µM (inactive).
On to `Cc1ccc2nc(C)cc(OCC(=O)O)c2c1`, for which the IC50 in assay [1] was above 10 µM; in assay [2], > 10 µM (inactive).
In the same order, the values of `Cc1ccc(C(=O)OCn2ncc(Cl)c(Cl)c2=O)cc1` are 4.62 µM and 4.06 µM.
In the same order, the values of `COCCNC(=O)C(c1ccc(F)cc1)N(CC1CCCO1)C(=O)CCC(=O)Nc1ccccn1` (stereo unspecified) are above 10 µM and > 10 µM (inactive).
For `O=C(NCCc1ccccc1)C1CCN(S(=O)(=O)N2CCCC2)CC1` the same measures were above 10 µM and > 10 µM (inactive).
`Cc1sc(NC(=O)c2ccco2)c(C(c2cccnc2)N2CCC(C)CC2)c1C` (stereo unspecified): the IC50 in assay [1] is 5.77 µM; in assay [2] it was > 10 µM (inactive).
In the same order, the values of `CCOc1cc(/C=C\[N+](=O)[O-])ccc1OCC(=O)Nc1ccccc1C` are above 10 µM and 25.4 µM.
For `O=C1c2ccccc2C(=O)c2c1oc(C(F)(F)F)c2C(=O)c1ccccc1` the same measures were 2.2 µM and 1.3 µM.
In the same order, the values of `COc1ccc(C(=O)Nc2ccc(Cl)cc2C(=O)N2CCCC(C)C2)cc1` (stereo unspecified) are above 10 µM and > 10 µM (inactive).
With `N=c1nc(N)nc2n1NC(c1ccc(F)cc1)=CS2`, the concentration for half-maximal inhibition (IC50) in assay [1] is above 10 µM; in assay [2], > 10 µM (inactive).
For `ON=Cc1cccn1-c1ccccc1`, the IC50 in assay [1] is above 10 µM; in assay [2], > 10 µM (inactive).
Turning to `O=C(NCc1ccccc1)NS(=O)(=O)c1ccccc1Cl`, the IC50 in assay [1] was above 10 µM; in assay [2], > 10 µM (inactive).
For `OC(Cn1ccnc1)c1ccc(Cl)cc1Cl` (stereo unspecified) the same measures were above 10 µM and > 10 µM (inactive).
For `Cc1cc([N+](=O)[O-])c(-c2ccc(/C=N/n3cnnc3)o2)cc1Cl`, the IC50 was 0.134 µM in assay [1] and 0.115 µM in assay [2].
For `Cc1ccc(S(=O)(=O)NC(CC(C)C)C(=O)Oc2ccc3c4c(c(=O)oc3c2)CCC4)cc1` (stereo unspecified) the same measures were above 10 µM and > 10 µM (inactive).
In the same order, the values of `C/C(=N\N=C(/N)SC1CC(=O)N(c2ccc(Cl)c(Cl)c2)C1=O)c1cccs1` (stereo unspecified) are 5.98 µM and 4.46 µM.
In the same order, the values of `Cc1cccc(OCC(=O)O/N=C(\N)Cc2ccc(Cl)cc2)c1` are 10.4 µM and > 10 µM (inactive).
Turning to `N#Cc1cn(-c2ccccc2)nc1-c1cc2ccccc2oc1=O`, the figures for the half-inhibitory concentration (IC50) in assay [1] and in assay [2] were above 10 µM and > 10 µM (inactive), respectively.
For `O=C(Cc1cccs1)Nc1nc2c(s1)CCCC2` the same measures were above 10 µM and > 10 µM (inactive).
In the same order, the values of `Cc1ccc2cc(CN(CCO)Cc3nnnn3Cc3ccc(F)cc3)c(=O)[nH]c2c1` are above 10 µM and > 10 µM (inactive).
In the same order, the values of `CCOc1ccc(-c2[nH]ncc2Oc2ccccc2OCC)c(O)c1` are 16 µM and 23.7 µM (inactive).
For the compound `O=C1NC2(Nc3ccccc31)C(=O)Nc1ccccc12` (stereo unspecified), the IC50 was above 10 µM in assay [1] and > 10 µM (inactive) in assay [2].
On to `CCCn1c(SCc2cc(=O)oc3ccc4ccccc4c23)n[nH]c1=O`, for which the results for the 50% inhibitory concentration (IC50) in assay [1] and in assay [2] were above 10 µM and > 10 µM (inactive), respectively.
For `O=C(Cn1nnc(-c2ccc(S(=O)(=O)N3CCCC3)cc2)n1)NCC1CCCO1` (stereo unspecified) the same measures were above 10 µM and > 10 µM (inactive).
For `O=C(COc1ccc(Cl)cc1)Nc1ccc(N2CCN(C(=O)c3ccco3)CC2)cc1`, the IC50 in assay [1] was above 10 µM; in assay [2], > 10 µM (inactive).
For `Cc1cc(=O)[nH]c(SCC(=O)c2ccc(C)c(C)c2)n1` the same measures were 2.31 µM and 0.896 µM.
In the same order, the values of `O=C(O)c1cc(-c2ccc(/C=N/Nc3ccc(Cl)cc3)o2)ccc1Cl` are 16.4 µM and 4.51 µM.
In the case of `COc1ccc(NC(=S)NC(NC(=O)c2ccc(Cl)cc2Cl)C(Cl)(Cl)Cl)c([N+](=O)[O-])c1` (stereo unspecified), the IC50 is above 10 µM in assay [1] and > 10 µM (inactive) in assay [2].
For `O=S(=O)(c1cnccc1N1CCN(/N=C/c2ccc(Br)cc2)CC1)N1CCCCC1` the same measures were above 10 µM and > 10 µM (inactive).
Take `CCc1n[nH]c2c1/C(=N\O)CC(C)(C)C2`: the figures for the half-inhibitory concentration (IC50) in assay [1] and in assay [2] were above 10 µM and > 10 µM (inactive), respectively.
In the same order, the values of `O=C(Nc1nnc(-c2ccc3c(c2)CCCC3)o1)c1ccc(Cl)cc1Cl` are 3.46 µM and 1.18 µM.
On to `CC1CC(C)CN(CCOc2ccc(Cl)cc2Cl)C1` (stereo unspecified), for which the 50% inhibitory concentration (IC50) in assay [1] is above 10 µM; in assay [2], > 10 µM (inactive).
For the compound `CCN(CC)CCCN(Cc1cc2cc3c(cc2[nH]c1=O)OCCO3)C(=O)Nc1ccc(F)cc1`, the IC50 in assay [1] was above 10 µM; in assay [2], > 10 µM (inactive).
For `CCCCC1(CCCC)C(=O)NC(=Nc2cccc(C)c2)NC1=O` the same measures were above 10 µM and > 10 µM (inactive).
As for `CC(=O)Nc1ccccc1NS(=O)(=O)c1ccc(Cl)cc1`, the half-maximal inhibitory concentration (IC50) is above 10 µM in assay [1] and > 10 µM (inactive) in assay [2].
On to `O=C(Nc1nnc(C2CC2)o1)c1ccc(S(=O)(=O)N2CCCc3ccccc32)cc1`, for which the results for the IC50 in assay [1] and in assay [2] were 3.17 µM and 11.9 µM (inactive), respectively.
Turning to `O=C(Nc1nnc(-c2ccc(Cl)cc2)o1)c1ccccc1Br`, the IC50 in assay [1] is 13.1 µM; in assay [2], 2.37 µM.
In the case of `CCOC(=O)NC(Nc1ccc(S(N)(=O)=O)cc1)(C(=O)OCC)C(F)(F)F` (stereo unspecified), the results for the IC50 in assay [1] and in assay [2] were above 10 µM and > 10 µM (inactive), respectively.
In the same order, the values of `O=C(N/N=C/c1ccc([N+](=O)[O-])o1)c1cc(-c2cccc(Br)c2)nc2ccccc12` are 4.65 µM and 0.918 µM.
As to `CC(C)COC(=O)c1ccc2c(c1O)C(=O)c1ccccc1C2=O`, the results for the half-maximal inhibitory concentration (IC50) in assay [1] and in assay [2] were above 10 µM and 22.9 µM, respectively.
Regarding `CCC(C)(C)n1nnnc1C(c1cc2cc3c(cc2[nH]c1=O)OCO3)N1CCN(C)CC1` (stereo unspecified), the results for the IC50 in assay [1] and in assay [2] were above 10 µM and > 10 µM (inactive), respectively.
For `CC1=CC(C)(C)Nc2ccc(OC(=O)CN3C(=O)c4cccc5cccc(c45)C3=O)cc21` the same measures were above 10 µM and > 10 µM (inactive).
Regarding `CCOC(=O)C1=C(N)N2C(=O)C(C)SC2=C(C(=O)OC)C1c1ccccc1OC` (stereo unspecified), the values for the IC50 in assay [1] and in assay [2] were 0.163 µM and > 10 µM (inactive), respectively.
For `Cn1c(=O)cc(NCc2ccccc2)[nH]c1=O`, the IC50 in assay [1] was above 10 µM; in assay [2] it was > 10 µM (inactive).
For `CCC(=O)c1ccc(N2CCN(C(=O)c3ccc(Br)cc3)CC2)c(F)c1` the same measures were above 10 µM and > 10 µM (inactive).
